In patent publication US8993574B2, “Pyrrole antifungal agents” (F2G Ltd, priority 2008, dated 2015):
≈ marks a conversion by molar mass, not a printed value.

Key:
Assay type in all cases: cell-based
Aspergillus terreus AT49 [1] = test: MIC, YAG medium; details: 24 h at 35° C, MIC banded into grades
How it was run: (§1)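 DMSO stocks diluted in water as doubling series; spore suspension in YAG (glucose, NH4Cl, yeast extract) added to give 1−2×10^4 cfu/mL. 35° C, 24 h. Growth by OD485; MIC at >70% inhibition, mg/L.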

Aspergillus terreus AT4 [2] = test: MIC, YAG medium; details: 24 h at 35° C, MIC banded into grades
How it was run: as §1

[3] = test system: Aspergillus fumigatus AF210; test: MIC, YAG medium; details: 24 h at 35° C, MIC banded into grades
How it was run: as §1

Aspergillus niger [4] = test: MIC, YAG medium; details: 24 h at 35° C, MIC banded into grades
How it was run: as §1

[5] = test system: Aspergillus fumigatus AF293; test: MIC, YAG medium; details: 24 h at 35° C, MIC banded into grades
How it was run: as §1

Aspergillus flavus [6] = test: MIC, YAG medium; details: 24 h at 35° C, MIC banded into grades
How it was run: as §1

Aspergillus terreus AT49 [7] = test: MIC, RPMI medium; details: for MIC grade, A. terreus 49: MIC banded into grades
How it was run: (§2)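 OD485-based endpoint after 24-48 h/35° C; MIC = lowest concentration, >80% inhibition relative to drug-free. RPMI/2% glucose/0.135 M MOPS pH 7.0; 1−2×10^4 cfu/mL; range 50-0.05 mg/L.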

Candida tropicalis = test: MIC, RPMI medium; details: 24-48 h at 35° C., >80% growth inhibition, banded into grades
How it was run: as §2

Candida krusei = test: MIC, RPMI medium; details: 24-48 h at 35° C., >80% growth inhibition, banded into grades
How it was run: as §2

Aspergillus terreus AT4 [8] = test: MIC, RPMI medium; details: for MIC grade, A. terreus: MIC banded into grades
How it was run: as §2

Candida parapsilosis = test: MIC, RPMI medium; details: 24-48 h at 35° C., >80% growth inhibition, banded into grades
How it was run: as §2

Candida albicans = test: MIC, RPMI medium; details: 24-48 h at 35° C., >80% growth inhibition, banded into grades
How it was run: as §2

[9] = test system: Aspergillus fumigatus AF210; test: MIC, RPMI medium; details: for MIC grade, A. fumigatus 210: MIC banded into grades
How it was run: as §2

Aspergillus niger [10] = test: MIC, RPMI medium; details: MIC banded into grades
How it was run: as §2

[11] = test system: Aspergillus fumigatus AF293; test: MIC, RPMI medium; details: for MIC grade, A. fumigatus: MIC banded into grades
How it was run: as §2

Candida glabrata = test: MIC, RPMI medium; details: 24-48 h at 35° C., >80% growth inhibition, banded into grades
How it was run: as §2

Aspergillus flavus [12] = test: MIC, RPMI medium; details: MIC banded into grades
How it was run: as §2

[13] = Aspergillus niger, read-out: MIC grade, A. niger

Compound | MIC grade, A. terreus 49 (Aspergillus terreus AT49 [1]) | MIC grade, A. terreus (Aspergillus terreus AT4 [2]) | MIC grade, A. fumigatus 210 [3] | MIC grade, A. niger (Aspergillus niger [4]) | MIC grade, A. fumigatus [5] | MIC grade, A. flavus (Aspergillus flavus [6]) | MIC grade, A. terreus 49 (Aspergillus terreus AT49 [7]) | Candida MIC, C. tropicalis (Candida tropicalis) | Candida MIC, C. krusei (Candida krusei) | MIC grade, A. terreus (Aspergillus terreus AT4 [8]) | Candida MIC, C. parapsilosis (Candida parapsilosis) | Candida MIC, C. albicans (Candida albicans) | MIC grade, A. fumigatus 210 [9] | MIC grade, A. niger (Aspergillus niger [10]) | MIC grade, A. fumigatus [11] | Candida MIC, C. glabrata (Candida glabrata) | MIC grade, A. flavus (Aspergillus flavus [12]) | also measured
COCCn1ccc(-c2ccccc2Cl)c1C(=O)C(=O)Nc1ccc(N2CCN(c3cc(C)cc(C)n3)CC2)cc1 [Example 57, 2-[3-(2-Chloro-phenyl)-1-(2-methoxy-ethyl)-1H-pyrrol-2-yl]-N-{4-[4-(4,6-dimethyl-pyridin-2-yl)-piperazin-1-yl]-phenyl}-2-oxo-acetamide] |  |  |  |  |  |  |  |  |  |  |  |  |  |  |  |  |  | MIC (Aspergillus terreus AT49 [1]; Aspergillus terreus, read-out: MIC grade, A. terreus 49): < 1 mg/L; MIC (Aspergillus terreus AT4 [2]; Aspergillus terreus, read-out: MIC grade, A. terreus): 1 to 10 mg/L (≈ 1.75 to 17.5 µM); MIC ([3]; Aspergillus fumigatus, read-out: MIC grade, A. fumigatus 210): < 1 mg/L; MIC (Aspergillus niger [4]; [13]): 1 to 10 mg/L (≈ 1.75 to 17.5 µM); MIC ([5]; Aspergillus fumigatus, read-out: MIC grade, A. fumigatus): < 1 mg/L; MIC (Aspergillus flavus [6]; Aspergillus flavus, 24 h, read-out: MIC grade, A. flavus): 1 to 10 mg/L (≈ 1.75 to 17.5 µM); MIC (Aspergillus terreus AT49 [7]; Aspergillus terreus, AT49, MIC banded into grades, read-out: MIC grade, A. terreus 49): 1 to 10 mg/L (≈ 1.75 to 17.5 µM); MIC (Candida tropicalis; Candida tropicalis): 1 to 10 mg/L (≈ 1.75 to 17.5 µM); MIC (Candida krusei; Pichia kudriavzevii): < 1 mg/L; MIC (Aspergillus terreus AT4 [8]; Aspergillus terreus, AT4, MIC banded into grades, read-out: MIC grade, A. terreus): 1 to 10 mg/L (≈ 1.75 to 17.5 µM); MIC (Candida parapsilosis; Lodderomyces parapsilosis): 1 to 10 mg/L (≈ 1.75 to 17.5 µM); MIC (Candida albicans; Candida albicans): 1 to 10 mg/L (≈ 1.75 to 17.5 µM); MIC ([9]; Aspergillus fumigatus, AF210, MIC banded into grades, read-out: MIC grade, A. fumigatus 210): 1 to 10 mg/L (≈ 1.75 to 17.5 µM); MIC (Aspergillus niger [10]; [13]): 1 to 10 mg/L (≈ 1.75 to 17.5 µM); MIC ([11]; Aspergillus fumigatus, AF293, MIC banded into grades, read-out: MIC grade, A. fumigatus): 1 to 10 mg/L (≈ 1.75 to 17.5 µM); MIC (Candida glabrata; Nakaseomyces glabratus): < 1 mg/L; MIC (Aspergillus flavus [12]; Aspergillus flavus, read-out: MIC grade, A. flavus): > 10 mg/L
COCCn1ccc(C2CCC2)c1C(=O)C(=O)Nc1ccc(N2CCN(c3cc(C)cc(C)n3)CC2)cc1 [Example 104, 2-[3-Cyclobutyl-1-(2-methoxy-ethyl)-1H-pyrrol-2-yl]-N-{4-[4-(4,6-dimethyl-pyridin-2-yl)-piperizin-1-yl]-phenyl}-2-oxo-acetamide] | 2 (A grade of 2 represents an MIC of from 1 to 10 mg/L) | 2 (A grade of 2 represents an MIC of from 1 to 10 mg/L) | 2 (A grade of 2 represents an MIC of from 1 to 10 mg/L) | 1 (a grade of 1 represents an MIC of greater than 10 mg/L) | 2 (A grade of 2 represents an MIC of from 1 to 10 mg/L) | 1 (a grade of 1 represents an MIC of greater than 10 mg/L) | 1 (a grade of 1 represents an MIC of greater than 10 mg/L) | 3 (A grade of 3 represents an MIC of less than 1 mg/L) | 2 (A grade of 2 represents an MIC of from 1 to 10 mg/L) | 1 (a grade of 1 represents an MIC of greater than 10 mg/L) | 3 (A grade of 3 represents an MIC of less than 1 mg/L) | 2 (A grade of 2 represents an MIC of from 1 to 10 mg/L) | 1 (a grade of 1 represents an MIC of greater than 10 mg/L) | 1 (a grade of 1 represents an MIC of greater than 10 mg/L) | 1 (a grade of 1 represents an MIC of greater than 10 mg/L) | 3 (A grade of 3 represents an MIC of less than 1 mg/L) | 1 (a grade of 1 represents an MIC of greater than 10 mg/L) | 
COC(=O)Cn1c(C)cc(-c2ccccc2)c1C(=O)C(=O)Nc1ccc(N2CCN(c3cc(C)cc(C)n3)CC2)cc1 [Example 52, (2-{4-[4-(4,6-Dimethyl-pyridin-2-yl)-piperazin-1-yl]-phenylaminooxalyl}-5-methyl-3-phenyl-pyrrol-1-yl)-acetic acid methyl ester] | 3 (A grade of 3 represents an MIC of less than 1 mg/L) | 3 (A grade of 3 represents an MIC of less than 1 mg/L) | 3 (A grade of 3 represents an MIC of less than 1 mg/L) | 3 (A grade of 3 represents an MIC of less than 1 mg/L) | 3 (A grade of 3 represents an MIC of less than 1 mg/L) | 3 (A grade of 3 represents an MIC of less than 1 mg/L) | 3 (A grade of 3 represents an MIC of less than 1 mg/L) | 2 (A grade of 2 represents an MIC of from 1 to 10 mg/L) | 3 (A grade of 3 represents an MIC of less than 1 mg/L) | 3 (A grade of 3 represents an MIC of less than 1 mg/L) | 2 (A grade of 2 represents an MIC of from 1 to 10 mg/L) | 2 (A grade of 2 represents an MIC of from 1 to 10 mg/L) | 3 (A grade of 3 represents an MIC of less than 1 mg/L) | 3 (A grade of 3 represents an MIC of less than 1 mg/L) | 3 (A grade of 3 represents an MIC of less than 1 mg/L) | 3 (A grade of 3 represents an MIC of less than 1 mg/L) | 2 (A grade of 2 represents an MIC of from 1 to 10 mg/L) | 
